Test results from PubChem BioAssay (NCI).
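Five compound concentrations were applied to cells in 96-well plates for 48 hours; endpoints were derived by simple linear interpolation of the resulting dose-response curve. GI50: concentration for 50% inhibition of growth. TGI marks complete inhibition of growth.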

Legend:
Experiment in all cases: NCI tumour cell line growth inhibition, 48 h
SF-268 CNS = system: SF-268 CNS
CCRF-CEM leukemia = system: CCRF-CEM leukemia
NCI-H226 lung = system: NCI-H226 lung
CAKI-1 renal = system: CAKI-1 renal
TK-10 renal = system: TK-10 renal
HCC-2998 colon = system: HCC-2998 colon
SK-MEL-5 melanoma = system: SK-MEL-5 melanoma
SNB-19 CNS = system: SNB-19 CNS
HOP-92 NSCLC = system: HOP-92 NSCLC
EKVX NSCLC = system: EKVX NSCLC
UACC-62 melanoma = system: UACC-62 melanoma
A549 NSCLC = system: A549 NSCLC
HCT-15 colon = system: HCT-15 colon
SK-MEL-28 melanoma = system: SK-MEL-28 melanoma
NCI-H522 lung = system: NCI-H522 lung
T-47D breast = system: T-47D breast
SW-620 colon = system: SW-620 colon
MCF7 breast = system: MCF7 breast
HCT-116 colon = system: HCT-116 colon
SK-OV-3 ovarian = system: SK-OV-3 ovarian
SR leukemia = system: SR leukemia
ACHN renal = system: ACHN renal
HOP-62 NSCLC = system: HOP-62 NSCLC
RPMI-8226 leukemia = system: RPMI-8226 leukemia
K-562 leukemia = system: K-562 leukemia
M14 melanoma = system: M14 melanoma
DU-145 prostate = system: DU-145 prostate
RXF 393 renal = system: RXF 393 renal
OVCAR-4 ovarian = system: OVCAR-4 ovarian
COLO 205 colon = system: COLO 205 colon
NCI-H460 lung = system: NCI-H460 lung
HT29 colon = system: HT29 colon
SF-539 CNS = system: SF-539 CNS
OVCAR-8 ovarian = system: OVCAR-8 ovarian
MDA-MB-231 breast = system: MDA-MB-231 breast
HS 578T breast = system: HS 578T breast
786-0 renal = system: 786-0 renal
IGROV1 ovarian = system: IGROV1 ovarian
BT-549 breast = system: BT-549 breast
MALME-3M melanoma = system: MALME-3M melanoma
SF-295 CNS = system: SF-295 CNS
OVCAR-5 ovarian = system: OVCAR-5 ovarian
HL-60(TB) leukemia = system: HL-60(TB) leukemia
PC-3 prostate = system: PC-3 prostate
NCI-H23 lung = system: NCI-H23 lung
SNB-75 CNS = system: SNB-75 CNS
MDA-MB-435 = system: MDA-MB-435
A498 renal = system: A498 renal
UACC-257 melanoma = system: UACC-257 melanoma
SN12C renal = system: SN12C renal
MOLT-4 leukemia = system: MOLT-4 leukemia
U251 CNS = system: U251 CNS
KM12 colon = system: KM12 colon
UO-31 renal = system: UO-31 renal
NCI/ADR-RES ovarian = system: NCI/ADR-RES ovarian
SK-MEL-2 melanoma = system: SK-MEL-2 melanoma

O=C1CC2(CCOCC2)Oc2ncccc21
GI50 (SF-268 CNS): 2.55 µM | TGI (SF-268 CNS): 7.7 µM | GI50 (CCRF-CEM leukemia): 2.11 µM | TGI (CCRF-CEM leukemia): 4.74 µM | GI50 (NCI-H226 lung): 2.06 µM | TGI (NCI-H226 lung): 4.59 µM | GI50 (CAKI-1 renal): 1.6 µM | TGI (CAKI-1 renal): 3.04 µM | GI50 (TK-10 renal): 6.68 µM | TGI (TK-10 renal): 37.1 µM | GI50 (HCC-2998 colon): 1.78 µM | TGI (HCC-2998 colon): 3.4 µM | GI50 (SK-MEL-5 melanoma): 2.09 µM | TGI (SK-MEL-5 melanoma): 4.34 µM | GI50 (SNB-19 CNS): 2.05 µM | TGI (SNB-19 CNS): 4.83 µM | GI50 (HOP-92 NSCLC): 1.67 µM | TGI (HOP-92 NSCLC): 3.3 µM | GI50 (EKVX NSCLC): 1.84 µM | TGI (EKVX NSCLC): 3.87 µM | GI50 (UACC-62 melanoma): 1.7 µM | TGI (UACC-62 melanoma): 3.22 µM | GI50 (A549 NSCLC): 4.94 µM | TGI (A549 NSCLC): 19.1 µM | GI50 (HCT-15 colon): 1.7 µM | TGI (HCT-15 colon): 3.34 µM | GI50 (SK-MEL-28 melanoma): 1.81 µM | TGI (SK-MEL-28 melanoma): 3.36 µM | GI50 (NCI-H522 lung): 2 µM | TGI (NCI-H522 lung): 4.15 µM | GI50 (T-47D breast): 4.66 µM | TGI (T-47D breast): 26.9 µM | GI50 (SW-620 colon): 1.77 µM | TGI (SW-620 colon): 3.5 µM | GI50 (MCF7 breast): 2.8 µM | TGI (MCF7 breast): 12.8 µM | GI50 (HCT-116 colon): 1.87 µM | TGI (HCT-116 colon): 3.59 µM | GI50 (SK-OV-3 ovarian): 15.7 µM | TGI (SK-OV-3 ovarian): 29.3 µM | GI50 (SR leukemia): 0.974 µM | TGI (SR leukemia): 4.69 µM | GI50 (ACHN renal): 1.81 µM | TGI (ACHN renal): 3.21 µM | GI50 (HOP-62 NSCLC): 3.24 µM | TGI (HOP-62 NSCLC): 13.1 µM | GI50 (RPMI-8226 leukemia): 0.545 µM | TGI (RPMI-8226 leukemia): 4.7 µM | GI50 (K-562 leukemia): 1.99 µM | TGI (K-562 leukemia): > 100 µM | GI50 (M14 melanoma): 1.85 µM | TGI (M14 melanoma): 3.76 µM | GI50 (DU-145 prostate): 2.98 µM | TGI (DU-145 prostate): 8.42 µM | GI50 (RXF 393 renal): 1.77 µM | TGI (RXF 393 renal): 3.41 µM | GI50 (OVCAR-4 ovarian): 2.1 µM | TGI (OVCAR-4 ovarian): 4.82 µM | GI50 (COLO 205 colon): 1.91 µM | TGI (COLO 205 colon): 4 µM | GI50 (NCI-H460 lung): 2.3 µM | TGI (NCI-H460 lung): 5.61 µM | GI50 (HT29 colon): 2.19 µM | TGI (HT29 colon): 4.85 µM | GI50 (SF-539 CNS): 1.74 µM | TGI (SF-539 CNS): 3.22 µM | GI50 (OVCAR-8 ovarian): 2.19 µM | TGI (OVCAR-8 ovarian): 4.92 µM | GI50 (MDA-MB-231 breast): 1.7 µM | TGI (MDA-MB-231 breast): 3.15 µM | GI50 (HS 578T breast): 2.54 µM | TGI (HS 578T breast): 8.26 µM | GI50 (786-0 renal): 2.38 µM | TGI (786-0 renal): 6.33 µM | GI50 (IGROV1 ovarian): 1.88 µM | TGI (IGROV1 ovarian): 3.86 µM | GI50 (BT-549 breast): 1.84 µM | TGI (BT-549 breast): 3.36 µM | GI50 (MALME-3M melanoma): 1.79 µM | TGI (MALME-3M melanoma): 3.51 µM | GI50 (SF-295 CNS): 12.5 µM | TGI (SF-295 CNS): 25.4 µM | GI50 (OVCAR-5 ovarian): 1.7 µM | TGI (OVCAR-5 ovarian): 3.18 µM | GI50 (HL-60(TB) leukemia): 2.23 µM | TGI (HL-60(TB) leukemia): 5.2 µM | GI50 (PC-3 prostate): 2.42 µM | TGI (PC-3 prostate): 6.03 µM | GI50 (NCI-H23 lung): 1.89 µM | TGI (NCI-H23 lung): 3.86 µM | GI50 (SNB-75 CNS): 2.07 µM | TGI (SNB-75 CNS): 12.4 µM | GI50 (MDA-MB-435): 2 µM | TGI (MDA-MB-435): 4.3 µM | GI50 (A498 renal): 2.38 µM | TGI (A498 renal): 9.57 µM | GI50 (UACC-257 melanoma): 2.53 µM | TGI (UACC-257 melanoma): 7.53 µM | GI50 (SN12C renal): 1.84 µM | TGI (SN12C renal): 3.44 µM | GI50 (MOLT-4 leukemia): 2.11 µM | TGI (MOLT-4 leukemia): 4.8 µM | GI50 (U251 CNS): 1.83 µM | TGI (U251 CNS): 3.63 µM | GI50 (KM12 colon): 2.76 µM | TGI (KM12 colon): 7.65 µM | GI50 (UO-31 renal): 2.63 µM | TGI (UO-31 renal): 12.8 µM | GI50 (NCI/ADR-RES ovarian): 2.05 µM | TGI (NCI/ADR-RES ovarian): 4.99 µM | GI50 (SK-MEL-2 melanoma): 2.73 µM | TGI (SK-MEL-2 melanoma): 7.32 µM
